Measured values published in patent US10947242B2, “[1,2,4]triazolo[1,5and#8208;A]pyrimidine compounds as PDE2 inhibitors” (Janssen Pharmaceutica NV, priority 2016, dated 2021).
Read-outs that look alike come from different tables or passages of the source.

Tests used:
Type in all cases: biochemical
[1] = target: T1, Human recombinant PDE3A (hPDE3A) (Homo sapiens, UniProt Q14432); assay: In vitro assay PDE3A (SPA, 3H-cAMP hydrolysis); conditions: for IC50: hPDE3B pIC50, read-out: pIC50 (converted); for Emax: read-out: hPDE3B Emax, read-out: Emax;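 on all read-outs here: the method names PDE3A and the table heading PDE3B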
T1 construct: purchased Scottish Biomedical; host or cells: Sf9 insect cells
Procedure, shortened: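 Human PDE3A, cloned from brain, as partially purified Sf9 lysate. Substrate 0.4 μM cAMP plus [3H]-cAMP (2.4 μCi/ml final) in 50 mM Tris pH 7.8, 8.3 mM MgCl2, 1.7 mM EGTA, 60 min at room temperature, 1% DMSO final. Hydrolysis read by SPA scintillation counting against no-enzyme blanks and DMSO controls.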

[2] = target: T2, Human recombinant PDE10A (hPDE10A) (Homo sapiens, UniProt Q9Y233); assay: In vitro assay PDE10A, human clone (SPA, 3H-cAMP hydrolysis)
T2 construct: His tag (inferred from metal chelate purification); made in house; host or cells: Sf9 insect cells (baculovirus)
Procedure, shortened: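 Human recombinant PDE10A was expressed in Sf9 cells via baculovirus and incubated with compound in 50 mM Tris pH 7.8, 8.3 mM MgCl2, 1.7 mM EGTA. Substrate was 60 nM cAMP plus 0.008 μCi 3H-cAMP for 60 min at room temperature, read by SPA scintillation counting. Controls used 1% DMSO, and blanks omitted enzyme.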

[3] = target: T3, Human recombinant PDE2A (hPDE2A) (Homo sapiens, UniProt O00408); assay: In vitro assay PDE2A (SPA, 3H-cGMP hydrolysis); conditions: for Emax: read-out: hPDE2A Emax
T3 construct: His tag (inferred from metal chelate purification); made in house; host or cells: Sf9 insect cells (baculovirus)

[4] = human clone by default (no (r) mark), read-out: hPDE10A2 or rPDE10A2 Emax
[5] = human clone by default (no (r) mark), read-out: hPDE10A2 or rPDE10A2 pIC50 (converted)
[6] = read-out: hPDE2A pIC50 (converted)
[7] = human clone (h), default, read-out: hPDE10A2 Emax
[8] = human clone (h), default, read-out: hPDE10A2 pIC50 (converted)
[9] = human recombinant PDE2A, 10 μM cGMP substrate, read-out: hPDE2A pIC50 (converted)

T2 sequence (Q9Y233 267-1055): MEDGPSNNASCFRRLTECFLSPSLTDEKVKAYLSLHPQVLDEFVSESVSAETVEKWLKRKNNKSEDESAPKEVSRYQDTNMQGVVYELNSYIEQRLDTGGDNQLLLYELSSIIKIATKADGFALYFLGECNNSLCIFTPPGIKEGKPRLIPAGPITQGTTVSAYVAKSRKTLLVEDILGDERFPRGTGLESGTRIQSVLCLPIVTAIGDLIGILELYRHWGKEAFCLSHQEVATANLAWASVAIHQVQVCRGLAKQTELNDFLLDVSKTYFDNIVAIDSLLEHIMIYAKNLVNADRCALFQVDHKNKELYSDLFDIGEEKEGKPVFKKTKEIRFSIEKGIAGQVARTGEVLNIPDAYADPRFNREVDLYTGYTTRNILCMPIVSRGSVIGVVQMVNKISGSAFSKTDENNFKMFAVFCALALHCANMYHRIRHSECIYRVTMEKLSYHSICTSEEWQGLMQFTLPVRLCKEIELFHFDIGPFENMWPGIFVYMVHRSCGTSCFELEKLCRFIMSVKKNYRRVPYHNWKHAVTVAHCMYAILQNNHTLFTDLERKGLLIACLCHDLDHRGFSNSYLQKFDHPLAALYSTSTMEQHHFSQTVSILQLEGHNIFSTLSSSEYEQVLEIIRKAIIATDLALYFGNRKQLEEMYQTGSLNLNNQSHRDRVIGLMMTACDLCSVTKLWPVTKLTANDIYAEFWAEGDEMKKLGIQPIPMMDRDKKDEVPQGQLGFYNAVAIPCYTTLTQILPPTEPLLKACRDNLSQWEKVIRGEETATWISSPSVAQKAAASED
T1 sequence (Q14432 whole entry): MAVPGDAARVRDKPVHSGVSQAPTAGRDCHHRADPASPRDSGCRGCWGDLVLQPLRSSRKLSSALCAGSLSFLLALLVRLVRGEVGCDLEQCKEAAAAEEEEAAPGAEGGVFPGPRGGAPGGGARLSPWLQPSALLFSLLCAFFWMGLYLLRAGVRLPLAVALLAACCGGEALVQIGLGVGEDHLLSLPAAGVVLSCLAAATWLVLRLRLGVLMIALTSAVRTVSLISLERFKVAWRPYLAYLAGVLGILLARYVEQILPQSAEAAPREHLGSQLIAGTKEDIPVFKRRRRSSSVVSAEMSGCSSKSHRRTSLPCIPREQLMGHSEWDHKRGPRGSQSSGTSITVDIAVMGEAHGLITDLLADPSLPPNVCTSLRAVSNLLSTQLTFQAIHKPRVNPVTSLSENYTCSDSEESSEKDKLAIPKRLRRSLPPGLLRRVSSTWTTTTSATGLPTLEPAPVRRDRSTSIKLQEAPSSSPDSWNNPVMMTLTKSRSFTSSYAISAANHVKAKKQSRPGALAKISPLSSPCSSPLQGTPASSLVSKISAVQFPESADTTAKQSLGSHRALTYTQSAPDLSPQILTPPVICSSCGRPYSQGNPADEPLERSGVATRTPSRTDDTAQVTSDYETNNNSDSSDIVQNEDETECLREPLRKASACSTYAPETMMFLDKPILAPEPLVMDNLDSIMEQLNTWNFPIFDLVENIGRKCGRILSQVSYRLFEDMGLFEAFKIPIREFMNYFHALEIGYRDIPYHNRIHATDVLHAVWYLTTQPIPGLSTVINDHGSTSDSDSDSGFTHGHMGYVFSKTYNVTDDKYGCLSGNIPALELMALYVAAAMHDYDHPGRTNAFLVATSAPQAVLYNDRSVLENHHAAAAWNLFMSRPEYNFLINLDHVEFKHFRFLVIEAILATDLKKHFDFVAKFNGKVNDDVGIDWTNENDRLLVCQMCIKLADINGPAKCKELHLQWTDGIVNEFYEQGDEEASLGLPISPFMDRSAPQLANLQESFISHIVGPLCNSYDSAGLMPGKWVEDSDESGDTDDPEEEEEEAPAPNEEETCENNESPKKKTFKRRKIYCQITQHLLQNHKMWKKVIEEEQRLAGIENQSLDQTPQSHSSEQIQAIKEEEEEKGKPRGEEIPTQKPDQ
T3 sequence (O00408 whole entry): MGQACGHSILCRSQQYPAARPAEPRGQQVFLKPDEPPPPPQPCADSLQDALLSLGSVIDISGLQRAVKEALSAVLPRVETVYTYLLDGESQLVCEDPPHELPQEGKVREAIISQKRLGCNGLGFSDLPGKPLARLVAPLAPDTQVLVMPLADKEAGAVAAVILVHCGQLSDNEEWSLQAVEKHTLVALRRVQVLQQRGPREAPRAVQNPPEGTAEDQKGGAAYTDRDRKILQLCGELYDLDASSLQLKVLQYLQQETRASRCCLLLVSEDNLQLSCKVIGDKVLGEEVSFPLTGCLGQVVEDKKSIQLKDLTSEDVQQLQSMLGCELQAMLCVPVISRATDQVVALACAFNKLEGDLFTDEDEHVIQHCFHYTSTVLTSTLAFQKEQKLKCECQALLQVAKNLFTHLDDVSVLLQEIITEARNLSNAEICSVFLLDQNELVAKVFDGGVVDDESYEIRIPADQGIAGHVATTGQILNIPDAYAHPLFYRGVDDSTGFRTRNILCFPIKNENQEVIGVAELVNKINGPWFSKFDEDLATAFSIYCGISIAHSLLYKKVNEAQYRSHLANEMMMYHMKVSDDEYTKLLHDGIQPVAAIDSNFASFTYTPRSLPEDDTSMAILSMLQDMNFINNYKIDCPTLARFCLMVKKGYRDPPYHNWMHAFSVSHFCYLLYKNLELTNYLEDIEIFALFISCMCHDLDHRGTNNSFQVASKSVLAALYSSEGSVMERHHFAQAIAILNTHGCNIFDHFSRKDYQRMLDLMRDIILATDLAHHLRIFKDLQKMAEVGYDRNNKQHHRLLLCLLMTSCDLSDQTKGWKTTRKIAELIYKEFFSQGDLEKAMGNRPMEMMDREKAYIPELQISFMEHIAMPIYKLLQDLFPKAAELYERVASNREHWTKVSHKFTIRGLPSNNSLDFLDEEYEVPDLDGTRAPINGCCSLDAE

Structure (SMILES)	IC50 [1] [µM]	Emax [1] [%]	Emax [2, 4] [%]	IC50 [2, 5] [µM]	Emax [3] [%]	IC50 [3, 6] [µM]	Emax [2, 7] [%]	IC50 [2, 8] [µM]	IC50 [3, 9] [µM]	Emax ([3]; human recombinant PDE2A) [%]	IC50 ([3]; hPDE2A pIC50) [µM]	IC50 ([3]; hPDE2A pIC50, human recombinant PDE2A, 10 μM cGMP substrate) [µM]
O=C(c1nc2ccccc2o1)N1[C@H]2CC[C@H](c3cc(C(F)F)nc4ncnn34)[C@@H]1CC2 [Compound 304]	9.12	48	45	> 10	100	0.0398	–	–	–	–	–	–
C[C@@H]1CCN(C(=O)c2ccnnc2)C[C@H]1c1cc(C(F)F)nc2ncnn12 [Compound 248]	> 10	2	49	10.5	95	0.347	49	10.5	–	–	–	–
Cc1csc(C(=O)N2CC[C@@H](C)[C@H](c3cc(C(F)F)nc4ncnn34)C2)c1Cl [Compound 147]	2.24	81	–	–	100	0.038	90	0.871	0.038	100	–	–
Cc1cnc(C(=O)N2[C@H]3CC[C@H](c4cc(C(F)F)nc5ncnn45)[C@@H]2CC3)cc1C [Compound 365]	> 10	24	33	> 10	99	0.0631	–	–	–	–	–	–
C[C@@H]1CCN(C(=O)c2ccc(O)nn2)C[C@H]1c1cc(C(F)F)nc2ncnn12 [Compound 236]	> 10	18	58	7.76	100	0.209	58	7.76	0.209	100	–	–
C[C@@H]1CCN(C(=O)c2cccc(N)n2)C[C@H]1c1cc(C(F)F)nc2ncnn12 [Compound 162]	> 10	26	–	–	97	0.0741	72	4.27	0.0741	97	–	–
Cc1cc([C@@H]2CN(C(=O)c3ccc4occ(C)c4c3)CC[C@H]2C)n2ncnc2n1 [Compound 5]	0.589	97	–	–	100	–	100	0.00891	–	–	0.000955	0.000955
Cc1cc(C(=O)N2[C@H]3CC[C@H](c4cc(C(F)F)nc5ncnn45)[C@@H]2CC3)cc(F)c1F [Compound 344]	7.24	61	80	2.57	99	0.0295	–	–	–	–	–	–
Cc1cc(C(=O)N2[C@H]3CC[C@H](c4cc(C(F)F)nc5ncnn45)[C@@H]2CC3)c(C)s1 [Compound 358]	> 10	40	58	7.94	102	0.0269	–	–	–	–	–	–
COc1cc(C(=O)N2[C@H]3CC[C@H](c4cc(C(F)F)nc5ncnn45)[C@@H]2CC3)ccc1F [Compound 343]	> 10	44	68	4.57	102	0.0676	–	–	–	–	–	–
Cc1cc([C@@H]2CN(C(=O)c3oc4ccccc4c3C)CC[C@H]2C)n2ncnc2n1 [Compound 7]	0.0759	100	–	–	100	0.000794	101	0.017	0.000794	100	–	–
C[C@@H]1CCN(C(=O)c2ccc3nc(N)sc3c2)C[C@H]1c1cc(C(F)F)nc2ncnn12 [Compound 88]	0.389	97	–	–	101	0.000209	99	0.00398	0.000209	101	–	–
Cn1ccc2cc(C(=O)N3[C@H]4CC[C@H](c5cc(C(F)F)nc6ncnn56)[C@@H]3CC4)cc(F)c21 [Compound 374]	0.741	97	98	0.182	100	0.000741	–	–	–	–	–	–
Cc1nc(C(=O)N2CC[C@@H](C)[C@H](c3cc(C(F)F)nc4ncnn34)C2)c(C)o1 [Compound 252]	> 10	17	66	6.76	96	0.708	66	6.76	–	–	–	–
C[C@@H]1CCN(C(=O)c2cccc(OC(F)(F)F)c2F)C[C@H]1c1cc(C(F)F)nc2ncnn12 [Compound 241]	1.74	88	94	0.269	97	0.0209	94	0.269	0.0209	97	–	–
